Assays:
[1] = system: Abutilon theophrasti; experiment: greenhouse post-emergence treatment, ABUTH; type: in vivo; details: 0.500 kg/ha, scale 0 to 100
Text: (§1) The seeds of the test plants were sown separately for each species. For the post-emergence treatment, the test plants were first grown to a height of 3 to 15 cm, depending on the plant habit, and only then treated with the active ingredients which had been suspended or emulsified in water. For this purpose, the test plants were either sown directly and grown in the same containers, or they were first grown separately as seedlings and transplanted into the test containers a few days prior to treatment. Depending on the species, the plants were kept at 10-25° C. or 20-35° C., respectively. The test period extended over 2 to 4 weeks. During this time, the plants were tended, and their response to the individual treatments was evaluated. Evaluation was carried out using a scale from 0 to 100. 100 means no emergence of the plants, or complete destruction of at least the aerial moieties, and 0 means no damage, or normal course of growth. A moderate herbicidal activity is given at values of at least 60, a good herbicidal activity is given at values of at least 70, and a very good herbicidal activity is given at values of at least 85. The plants used in the greenhouse experiments were of the following species: [table]

[2] = system: Amaranthus retroflexus; experiment: greenhouse post-emergence treatment, AMARE; type: in vivo; details: Amaranthus retroflexus, scale 0 to 100, read-out: herbicidal activity against AMARE; for pest or weed control at 500 g/ha: 0.500 kg/ha
Text: as §1

[3] = system: Echinocloa crus-galli; experiment: greenhouse post-emergence treatment, ECHCG; type: in vivo; details: scale 0 to 100
Text: as §1

[4] = system: Abutilon theophrasti; experiment: greenhouse pre-emergence treatment, ABUTH; type: in vivo; details: 0.500 kg/ha, scale 0 to 100
Text: (§2) The seeds of the test plants were sown separately for each species. For the pre-emergence treatment, the active ingredients, which had been suspended or emulsified in water, were applied directly after sowing by means of finely distributing nozzles. The containers were irrigated gently to promote germination and growth and subsequently covered with transparent plastic hoods until the plants had rooted. This cover caused uniform germination of the test plants, unless this had been impaired by the active ingredients. Depending on the species, the plants were kept at 10-25° C. or 20-35° C., respectively. The test period extended over 2 to 4 weeks. During this time, the plants were tended, and their response to the individual treatments was evaluated. Evaluation was carried out using a scale from 0 to 100. 100 means no emergence of the plants, or complete destruction of at least the aerial moieties, and 0 means no damage, or normal course of growth. A moderate herbicidal activity is given at values of at least 60, a good herbicidal activity is given at values of at least 70, and a very good herbicidal activity is given at values of at least 85. The plants used in the greenhouse experiments were of the following species: [table]

[5] = system: Amaranthus retroflexus; experiment: greenhouse pre-emergence treatment, AMARE; type: in vivo; details: scale 0 to 100
Text: as §2

[6] = system: Echinocloa crus-galli; experiment: greenhouse pre-emergence treatment, ECHCG; type: in vivo; details: scale 0 to 100
Text: as §2

[7] = system: Setaria faberi; experiment: greenhouse pre-emergence treatment, SETFA; type: in vivo; details: scale 0 to 100
Text: as §2

[8] = known from Archiv der Pharmazie, 1984, Vol. 317, S. 754; cited from earlier work
[9] = system: Lamium purpureum; experiment: greenhouse pre-emergence treatment, LAMPU; type: in vivo; details: 0.500 kg/ha, scale 0 to 100
Text: as §2

[10] = system: Stellaria media; experiment: greenhouse pre-emergence treatment, STEME; type: in vivo; details: 0.500 kg/ha, scale 0 to 100
Text: as §2

[11] = system: Viola arvensis; experiment: greenhouse pre-emergence treatment, VIOAR; type: in vivo; details: 0.500 kg/ha, scale 0 to 100
Text: as §2

[12] = system: Apera spica-venti; experiment: greenhouse pre-emergence treatment, APESV; type: in vivo; details: scale 0 to 100
Text: as §2

[13] = system: Setaria faberi; experiment: greenhouse post-emergence treatment, SETFA; type: in vivo; details: scale 0 to 100
Text: as §1

[14] = system: Alopecurus myosuroides; experiment: greenhouse pre-emergence treatment, ALOMY; type: in vivo; details: scale 0 to 100
Text: as §2

[15] = system: Polygonum convolvulus; experiment: greenhouse post-emergence treatment, POLCO; type: in vivo; details: 0.500 kg/ha, scale 0 to 100
Text: as §1

[16] = system: Setaria viridis; experiment: greenhouse post-emergence treatment, SETVI; type: in vivo; details: 0.500 kg/ha, scale 0 to 100
Text: as §1

[17] = system: Stellaria media; experiment: greenhouse post-emergence treatment, STEME; type: in vivo; details: 0.500 kg/ha, scale 0 to 100
Text: as §1

[18] = system: Viola arvensis; experiment: greenhouse post-emergence treatment, VIOAR; type: in vivo; details: 0.500 kg/ha, scale 0 to 100
Text: as §1

Row | SMILES | herbicidal activity against ABUTH [1] | pest or weed control at 500 g/ha [2] [%] | herbicidal activity against ECHCG ([3]; 0.500 kg/ha) | herbicidal activity against ABUTH [4] | herbicidal activity against AMARE ([5]; 0.500 kg/ha) | herbicidal activity against ECHCG ([6]; 0.500 kg/ha) | herbicidal activity against SETFA ([7]; 0.500 kg/ha) | herbicidal activity against APESV ([12]; 0.500 kg/ha) | other results
1 | Nc1nc(Nc2c(F)c(F)cc(F)c2F)nc(N2CCC2)n1 [Example 34] | very good (a very good herbicidal activity is given at values of at least 85) | ≥ 85 | very good (a very good herbicidal activity is given at values of at least 85) | very good (a very good herbicidal activity is given at values of at least 85) | very good (a very good herbicidal activity is given at values of at least 85) | very good (a very good herbicidal activity is given at values of at least 85) | very good (a very good herbicidal activity is given at values of at least 85) |  | 
2 | CC(C)Nc1nc(Nc2ccccc2F)nc(NC(C)C)n1 [N6-(2-fluorophenyl)-N2,N4-diisopropyl-1,3,5-triazine-2,4,6-triamine] |  |  |  |  |  |  |  |  | trichomonacidal activity [8]: shows trichomonacidal activity
3 | COc1nc(N)nc(Nc2c(F)c(F)cc(F)c2F)n1 [Example 4] |  |  |  |  |  |  |  |  | herbicidal activity against LAMPU [9]: very good (a very good herbicidal activity is given at values of at least 85); herbicidal activity against STEME [10]: very good (a very good herbicidal activity is given at values of at least 85); herbicidal activity against VIOAR [11]: very good (a very good herbicidal activity is given at values of at least 85)
4 | CC1CCC(C)N1c1nc(N)nc(Nc2c(F)c(F)cc(F)c2F)n1 (stereo not shown) [Example 18] |  |  |  |  | very good (a very good herbicidal activity is given at values of at least 85) | very good (a very good herbicidal activity is given at values of at least 85) |  | very good (a very good herbicidal activity is given at values of at least 85) | 
5 | Nc1nc(Nc2c(F)c(F)c(F)c(F)c2F)nc(N2CCCCC2)n1 [Example 5] |  |  |  |  |  |  |  |  | pest or weed control at 1000 g/ha ([2]; 1.000 kg/ha): ≥ 85%; herbicidal activity against ECHCG ([3]; 1.000 kg/ha): very good (a very good herbicidal activity is given at values of at least 85); herbicidal activity against SETFA ([13]; 1.000 kg/ha): very good (a very good herbicidal activity is given at values of at least 85); herbicidal activity against ALOMY ([14]; 1.000 kg/ha): very good (a very good herbicidal activity is given at values of at least 85); herbicidal activity against AMARE ([5]; 1.000 kg/ha): very good (a very good herbicidal activity is given at values of at least 85); herbicidal activity against APESV ([12]; 1.000 kg/ha): very good (a very good herbicidal activity is given at values of at least 85)
6 | CON(C)c1nc(N)nc(Nc2c(F)c(F)cc(F)c2F)n1 [Example 28] | very good (a very good herbicidal activity is given at values of at least 85) | ≥ 85 |  | very good (a very good herbicidal activity is given at values of at least 85) | very good (a very good herbicidal activity is given at values of at least 85) |  | very good (a very good herbicidal activity is given at values of at least 85) | very good (a very good herbicidal activity is given at values of at least 85) | herbicidal activity against SETFA ([13]; 0.500 kg/ha): very good (a very good herbicidal activity is given at values of at least 85); herbicidal activity against ALOMY ([14]; 0.500 kg/ha): very good (a very good herbicidal activity is given at values of at least 85)
7 | CON(C)c1nc(N)nc(Nc2c(F)c(F)c(F)c(F)c2F)n1 [Example 27] | very good (a very good herbicidal activity is given at values of at least 85) | ≥ 85 |  | very good (a very good herbicidal activity is given at values of at least 85) | very good (a very good herbicidal activity is given at values of at least 85) |  | very good (a very good herbicidal activity is given at values of at least 85) | very good (a very good herbicidal activity is given at values of at least 85) | herbicidal activity against SETFA ([13]; 0.500 kg/ha): very good (a very good herbicidal activity is given at values of at least 85); herbicidal activity against ALOMY ([14]; 0.500 kg/ha): very good (a very good herbicidal activity is given at values of at least 85)
8 | COc1nc(N)nc(Nc2c(F)c(F)c(F)c(F)c2F)n1 [Example 2, 6-methoxy-N2-(2,3,4,5,6-pentafluorophenyl)-1,3,5-triazine-2,4-diamine] |  |  | very good (a very good herbicidal activity is given at values of at least 85) |  |  |  |  |  | herbicidal activity against POLCO [15]: very good (a very good herbicidal activity is given at values of at least 85); herbicidal activity against SETVI [16]: very good (a very good herbicidal activity is given at values of at least 85); herbicidal activity against ALOMY ([14]; 0.125 kg/ha): good to very good; herbicidal activity against AMARE ([5]; 0.125 kg/ha): good to very good; herbicidal activity against APESV ([12]; 0.125 kg/ha): good to very good
9 | Nc1nc(Nc2c(F)c(F)c(F)c(F)c2F)nc(N2CCC2)n1 [Example 33] | very good (a very good herbicidal activity is given at values of at least 85) | ≥ 85 | very good (a very good herbicidal activity is given at values of at least 85) | very good (a very good herbicidal activity is given at values of at least 85) | very good (a very good herbicidal activity is given at values of at least 85) | very good (a very good herbicidal activity is given at values of at least 85) | very good (a very good herbicidal activity is given at values of at least 85) |  | 
10 | Nc1nc(Nc2c(F)c(F)c(F)c(F)c2F)nc(OCC(F)(F)F)n1 [Example 3] |  |  |  |  |  |  |  |  | herbicidal activity against SETVI [16]: very good (a very good herbicidal activity is given at values of at least 85); herbicidal activity against STEME [17]: very good (a very good herbicidal activity is given at values of at least 85); herbicidal activity against VIOAR [18]: very good (a very good herbicidal activity is given at values of at least 85); herbicidal activity against AMARE ([5]; 1.000 kg/ha): very good (a very good herbicidal activity is given at values of at least 85); herbicidal activity against ECHCG ([6]; 1.000 kg/ha): very good (a very good herbicidal activity is given at values of at least 85); herbicidal activity against SETFA ([7]; 1.000 kg/ha): very good (a very good herbicidal activity is given at values of at least 85)
